Values joined by “and” are separate entries in the source; they are usually repeats but may differ in a detail not shown here. Equal entries are not always repeated.
Experiments:
Anas platyrhynchos = settings: short-term; oral; feed; mortality
Daphnia magna = settings: chronic/long-term; duration: 21 days; reproduction
Tagia sp. = settings: acute; duration: 14 days; mortality
Canidae = settings: oral, Dog Other, clinical chemistry
Colinus virginianus = settings: mortality
Rattus norvegicus = settings: for LD50: acute, oral
Apis mellifera = settings: acute; duration: 48 hours; oral; unspecified; mortality
Mus musculus = settings: acute, oral, mortality
Coturnix coturnix = settings: acute, oral, mortality
Typhlodromus pyri = assay: LR50; higher = less toxic; settings: not reported; mortality
Aphidius rhopalosiphi = assay: LR50; higher = less toxic; settings: not reported; mortality

## Cc1nnc(-c2ccccc2)c(=O)n1N [Metamitron]
Oncorhynchus mykiss; acute, duration: 96 hours, mortality
  LC50: > 190 µg/mL
Oncorhynchus mykiss; chronic/long-term, duration: 21 days, growth
  NOEC: 7 mg/L
Anas platyrhynchos
  LD50: > 1590 mg/kg-day
Daphnia magna
  NOEC: 10 mg/L
Tagia sp.
  LC50: 914 mg/kg
Canidae; chronic, duration: 2 years, diet
  NOAEL: 3 mg/kg-day
Canidae; subchronic, duration: 90 days
  NOAEL: 3.6 mg/kg-day
Colinus virginianus; acute, oral, diet
  LD50: > 904 mg/kg-day
Colinus virginianus; reproduction developmental
  NOAEL: 81.5 mg/kg-day
Rattus norvegicus; F, mortality
  LD50: 1480 mg/kg-day
Rattus norvegicus; M, mortality
  LD50: 1180 mg/kg-day
Rattus norvegicus; mortality
  LD50: < 2000 mg/kg-day and 4320 mg/kg-day
Rattus norvegicus; chronic, F, mortality
  NOAEL: 53.8 mg/kg-day
Rattus norvegicus; chronic, M, mortality
  NOAEL: 36.4 mg/kg-day
Rattus norvegicus; reproduction developmental, body weight
  NOAEL: 10 mg/kg-day
Apis mellifera
  LD50: > 97.2 µg/piece
Mus musculus; M
  LD50: 691 mg/kg-day
Mus musculus
  LD50: 644 mg/kg-day
Coturnix coturnix; F
  LD50: 1300 mg/kg-day
Coturnix coturnix; M
  LD50: 1360 mg/kg-day
Typhlodromus pyri
  LR50: 14400 g/ha
Aphidius rhopalosiphi
  LR50: 14400 g/ha

From EPA's ToxValDB 9.5 (doi:10.2903/j.efsa.2008.185r)
